US20210238197A1, “NOVEL OXOQUINOLIZINE COMPOUNDS FOR THE TREATMENT AND PROPHYLAXIS OF BACTERIAL INFECTION” (Hoffmann-La Roche Inc., priority 2018, published 2021)
≈ marks a conversion by molar mass, not a printed value. Like-named read-outs stand apart in the source and are kept apart here.

Experiments:
[1] = tested on: S. aureus (ATCC29213); test: 50% growth inhibitory concentration (IC50) determination assay, S. aureus; type: cell-based; details: Staphylococcus aureus, ATCC29213; Iso-Sensitest broth, growth by OD 600 nm over 16 h; <0.098 = detection limit
Experimental: (§1) The in vitro antimicrobial activity of the compounds against S. aureus (ATCC29213), K. pneumoniae (ATCC10031), and A. baumannii (ATCC17978), was determined according to the following procedure: The assay used a 10-points Iso-Sensitest broth medium to measure quantitatively the in vitro activity of the compounds against S. aureus ATCC29213, K. pneumoniae ATCC 10031, and A. baumannii ATCC17978. Stock compounds in DMSO were serially two-fold diluted (range from 50 to 0.097 μM final concentration) in 384 wells microtiter plates and inoculated with 49 μL the bacterial suspension in Iso-Sensitest broth medium to have a final cell concentration of ˜5×10^5 CFU/mL in a final volume/well of 50 μL/well. Microtiter plates were incubated at 35±2° C. Bacterial cell growth was determined with the measurement of optical density at λ=600 nm each 20 minutes over a time course of 16 h.

[2] = tested on: K. pneumoniae (ATCC10031); test: 50% growth inhibitory concentration (IC50) determination assay, K. pneumoniae; type: cell-based; details: Klebsiella pneumoniae, ATCC10031; Iso-Sensitest broth, growth by OD 600 nm over 16 h; <0.098 = detection limit
Experimental: as §1

[3] = tested on: A. baumannii (ATCC17978); test: 50% growth inhibitory concentration (IC50) determination assay, A. baumannii; type: cell-based; details: Acinetobacter baumannii, ATCC17978; Iso-Sensitest broth, growth by OD 600 nm over 16 h; <0.098 = detection limit
Experimental: as §1

[4] = tested on: multiple species and strains; test: microbe, parasite or virus in culture; set-up: MIC S9 / MIC S7 / MIC S11 / MIC S8 / MIC S10: unit not given beside the values; details: for MIC S9: E. coli ATCC 35218
Experimental: The MIC of antibacterial compounds against multiple species and strains was determined using the broth microdilution method according to M07-A10 Clinical and Laboratory Standards Institute (CLSI) guidelines (CLSI (2015) Methods for dilution antimicrobial susceptibility tests for bacteria that grow aerobically; Approved Standard, Tenth Edition. CLSI Document M7-A10 (ISBN 1-56238-987-4). Wayne, Pa.: Clinical and Laboratory Standards Institute, 19087, USA.). In short, bacterial strain preparation was performed on D1 and D2. […] 5-10 well-isolated colonies of similar morphology were selected and re-streaked onto fresh agar plates using sterile loops and incubated for 20-24 hr at 35±2° C. Bacterial strains were subcultured two times to ensure fresh inoculums for MIC screening. […] Alternatively, 1-2 colonies were transferred into 500 μL of saline and OD600 was adjusted to ˜0.1 using an OD meter. Bacterial inoculum was diluted by 1:280 for Gram-positive strains and 1:400 for Gram-negative strains into corresponding medium broth (CAMHB, CAMHB+3% lysed horse blood, HTM) (e.g. 35.6 μL of inoculum into 10 mL of CAMHB or 25 μL of inoculum into 10 mL of CAMHB). For compound plate, the compound stock solutions were prepared in 100% DMSO on the day of MIC screening and used immediately. Compound stock concentration=[(highest testing concentration)×100 μL/2 μL] (e.g. if the required highest testing concentration is 64 μg/mL in assay plates, stock concentration=64 μg/mL×100 μL/2 μL=3.2 mg/mL). […] 1 μL of each well was transferred in a new MTP, which served as the test plate by subsequent inoculation. The bacterial suspension prepared above is dispensed at 98 μL/well within 15 minutes after preparation. Negative controls (lack of bacterial cells) and growth control wells (lack of compound) were included in all plates. MTPs were incubated for 18-24 hours at 35±2° C. in ambient air. The MIC was recorded and CFUs were calculated on Day 4. The assay plate was placed on the top of MIC reader, and the magnification mirror was adjusted to read each wells, recording growth status as raw data. Photo images of each assay plates were recorded using Q Count 530 (Spiral Biotech). The MIC value of each compound, expressed as μg/mL, was determined as the lowest concentration required for complete growth inhibition (no visible growth).

[5] = Acinetobacter baumannii, ATCC19606, read-out: MIC S1, A. baumannii ATCC 19606
[6] = Acinetobacter baumannii, ATCC51432, read-out: MIC S2, A. baumannii ATCC 51432
[7] = Acinetobacter baumannii, ATCCBAA747, read-out: MIC S3, A. baumannii ATCC BAA-747
[8] = Escherichia coli, ATCC25922, read-out: MIC S11, E. coli ATCC 25922
[9] = Escherichia coli, ATCCBAA2340, read-out: MIC S10, E. coli ATCC BAA-2340
[10] = Klebsiella pneumoniae, ATCC10031, read-out: MIC S4, K. pneumoniae ATCC 10031
[11] = Klebsiella pneumoniae, ATCC700603, read-out: MIC S5, K. pneumoniae ATCC 700603
[12] = Klebsiella pneumoniae, ATCCBAA2146, read-out: MIC S6, K. pneumoniae ATCC BAA-2146
[13] = Pseudomonas aeruginosa, ATCC27853, read-out: MIC S7, P. aeruginosa ATCC 27853
[14] = Pseudomonas aeruginosa, ATCCBAA2113, read-out: MIC S8, P. aeruginosa ATCC BAA-2113

Row | Structure (SMILES) | IC50 [1] [nM] | IC50 [2] [nM] | IC50 [3] [nM] | MIC [4, 5] [µg/mL] | MIC [4, 6] [µg/mL] | MIC [4, 7] [µg/mL] | MIC S9 [4] | MIC [4, 8] [µg/mL] | MIC [4, 9] [µg/mL] | MIC [4, 10] [µg/mL] | MIC [4, 11] [µg/mL] | MIC [4, 12] [µg/mL] | MIC [4, 13] [µg/mL] | MIC [4, 14] [µg/mL] | MIC S11 ([4]; E. coli ATCC 25922) | MIC S7 ([4]; P. aeruginosa ATCC 27853)
1 | CNc1cc(F)c(F)c2c1[nH]c1ncc(-c3ccc4c(C)cc(C(=O)O)c(=O)n4c3)c(N3CC[C@H]4CN(C)C[C@H]43)c12 (relative stereo) [Example 2.04, 7-[4-[cis-5-methyl-2,3,3a,4,6,6a-hexahydropyrrolo[2,3-c]pyrrol-1-yl]-5,6-difluoro-8-(methylamino)-9H-pyrido[2,3-b]indol-3-yl]-1-methyl-4-oxo-quinolizine-3-carboxylic acid] | < 98 | < 98 | < 98 | 0.461 (≈ 0.825 µM) | 0.614 (≈ 1.1 µM) | 0.922 (≈ 1.65 µM) | 0.614 | 0.173 (≈ 0.31 µM) | 0.922 (≈ 1.65 µM) | 0.077 (≈ 0.138 µM) | 4.92 (≈ 8.8 µM) | 4.92 (≈ 8.8 µM) | 2.46 (≈ 4.4 µM) | 3.69 (≈ 6.6 µM) | – | –
2 | CNc1cc(F)c(F)c2c1[nH]c1ncc(-c3ccc4c(C5CC5)cc(C(=O)O)c(=O)n4c3)c(N3CC[C@H]4CN(C)C[C@H]43)c12 (relative stereo) [Example 2.05, 7-[4-[cis-5-methyl-2,3,3a,4,6,6a-hexahydropyrrolo[2,3-c]pyrrol-1-yl]-5,6-difluoro-8-(methylamino)-9H-pyrido[2,3-b]indol-3-yl]-1-cyclopropyl-4-oxo-quinolizine-3-carboxylic acid] | < 98 | < 98 | < 98 | – | – | – | – | – | – | – | – | – | – | – | – | –
3 | CNc1cc(F)c(F)c2c1[nH]c1ncc(-c3ccc4c(Cl)cc(C(=O)O)c(=O)n4c3)c(N3CC[C@H]4CN(C)C[C@H]43)c12 (relative stereo) [Example 2.11, 7-[4-[cis-5-methyl-2,3,3a,4,6,6a-hexahydropyrrolo[2,3-c]pyrrol-1-yl]-5,6-difluoro-8-(methylamino)-9H-pyrido[2,3-b]indol-3-yl]-1-chloro-4-oxo-quinolizine-3-carboxylic acid] | < 98 | < 98 | < 98 | 0.27 (≈ 0.466 µM) | 0.541 (≈ 0.934 µM) | 0.541 (≈ 0.934 µM) | 1.081 | 0.203 (≈ 0.351 µM) | 1.08 (≈ 1.87 µM) | 0.068 (≈ 0.117 µM) | 4.33 (≈ 7.48 µM) | 4.33 (≈ 7.48 µM) | 2.17 (≈ 3.74 µM) | 4.33 (≈ 7.48 µM) | – | –
4 | CNc1cc(F)c(C#N)c2c1[nH]c1ncc(-c3ccc4ccc(C(=O)O)c(=O)n4c3)c(N3C[C@H]4CCN(C)[C@H]4C3)c12 (single isomer, unassigned) [Example 1.11, 7-[5-cyano-6-fluoro-4-(cis-1-methyl-2,3,3a,4,6,6a-hexahydropyrrolo[3,4-b]pyrrol-5-yl)-8-(methylamino)-9H-pyrido[2,3-b]indol-3-yl]-4-oxo-quinolizine-3-carboxylic acid] | < 98 | < 98 | < 98 | 0.26 (≈ 0.471 µM) | 0.26 (≈ 0.471 µM) | 0.26 (≈ 0.471 µM) | 0.260 | – | 0.26 (≈ 0.471 µM) | 0.033 (≈ 0.0598 µM) | 1.04 (≈ 1.88 µM) | 1.04 (≈ 1.88 µM) | – | 2.08 (≈ 3.77 µM) | 0.097 | 1.038
5 | CNc1cc(F)c(F)c2c1[nH]c1ncc(-c3ccc4ccc(C(=O)O)c(=O)n4c3)c(N3CC4C(N(C)C)CO[C@@H]4C3)c12 (stereo partly drawn) [Example 1.06, 7-[4-[cis-3-(dimethylamino)-2,3,3a,4,6,6a-hexahydrofuro[2,3-c]pyrrol-5-yl]-5,6-difluoro-8-(methylamino)-9H-pyrido[2,3-b]indol-3-yl]-4-oxo-quinolizine-3-carboxylic acid] | 137 | < 98 | < 98 | – | – | – | – | – | – | – | – | – | – | – | – | –
